Assays:
Format in all cases: in vivo
[1] = test system: rice (Oryza sativa); test: Test B flooded paddy test; details: for Plant response rating, Rice: Flood (flooded paddy test), 13 to 15 days
How it was run: (§1)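 Ratings are visual, 0–100 (100 = complete control), taken versus untreated controls 13 to 15 days after treatment in the greenhouse. Compound went straight into paddy water held 3 cm above soil, applied to 2-leaf-stage plants of four species.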

[2] = test system: umbrella sedge (Cyperus difformis); test: Test B flooded paddy test; details: for Plant response rating, Sedge, Umbrella: Flood (flooded paddy test), 13 to 15 days
How it was run: as §1

[3] = test system: ducksalad (Heteranthera limosa); test: Test B flooded paddy test; details: for Plant response rating, Ducksalad: Flood (flooded paddy test), 13 to 15 days
How it was run: as §1

[4] = test system: barnyardgrass (Echinochloa crus-galli); test: Test B flooded paddy test; details: for Plant response rating, Barnyardgrass: Flood (flooded paddy test), 13 to 15 days
How it was run: as §1

[5] = test system: large crabgrass (Digitaria sanguinalis); test: Test A pre-/postemergence plant response
How it was run: (§2)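 Each species was treated preemergence via directed soil spray and postemergence at the one- to two-leaf stage, with compounds formulated in a non-phytotoxic solvent plus surfactant. Visual injury relative to untreated controls was rated after about ten days on a 0–100 scale.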

[6] = test system: pigweed (Amaranthus retroflexus); test: Test A pre-/postemergence plant response
How it was run: as §2

[7] = test system: velvetleaf (Abutilon theophrasti); test: Test A pre-/postemergence plant response
How it was run: as §2

[8] = test system: morningglory (Ipomoea spp.); test: Test A pre-/postemergence plant response
How it was run: as §2

[9] = test system: corn (Zea mays); test: Test A pre-/postemergence plant response
How it was run: as §2

[10] = test system: wheat (Triticum aestivum); test: Test A pre-/postemergence plant response
How it was run: as §2

[11] = test system: barnyardgrass (Echinochloa crus-galli); test: Test A pre-/postemergence plant response
How it was run: as §2

[12] = test system: giant foxtail (Setaria faberii); test: Test A pre-/postemergence plant response
How it was run: as §2

[13] = 250 g ai/ha, flooded paddy test, visual rating on 0 to 100 scale (0 no effect, 100 complete control) after 13 to 15 days
[14] = 62 g ai/ha, scale of 0 to 100 where 0 is no effect and 100 is complete control
[15] = 125 g ai/ha, scale 0 to 100, 0 is no effect, 100 is complete control
[16] = Flood, 31 g ai/ha, scale 0 to 100 (0 no effect, 100 complete control)
[17] = Postemergence, 125 g ai/ha, 0 to 100 scale where 0 is no effect and 100 is complete control
[18] = Postemergence, 500 g ai/ha, visual injury, 0 to 100 scale (0 no effect, 100 complete control), approx. ten days
[19] = Preemergence, 125 g ai/ha, 0 to 100 scale, 0 = no effect, 100 = complete control
[20] = Preemergence, 500 g ai/ha, 0 to 100 scale, 0 = no effect, 100 = complete control

SMILES: O=C1CCCC(O)=C1C(=O)c1cnc(-c2cccc(C(F)(F)F)c2)n(C2CCCCC2)c1=O [Compound 195]
- Plant response rating, Flood, Rice [1, 13]: 15
- Plant response rating, Rice [1, 14]: 0
- Plant response rating, Rice [1, 15]: 0
- Rice plant response rating [1, 16]: 0
- Plant response rating, Flood, Sedge, Umbrella [2, 13]: 65
- Plant response rating, Sedge, Umbrella [2, 14]: 0
- Plant response rating, Sedge, Umbrella [2, 15]: 50
- Sedge, Umbrella plant response rating [2, 16]: 0
- Plant response rating, Flood, Ducksalad [3, 13]: 85
- Plant response rating, Ducksalad [3, 14]: 50
- Plant response rating, Ducksalad [3, 15]: 70
- Ducksalad plant response rating [3, 16]: 0
- Plant response rating, Flood, Barnyardgrass [4, 13]: 20
- Plant response rating, Barnyardgrass [4, 14]: 0
- Plant response rating, Barnyardgrass [4, 15]: 0
- Barnyardgrass plant response rating [4, 16]: 0
- Plant response rating, Crabgrass, Large [5, 17]: 40
- Crabgrass, Large plant response rating [5, 18]: 90
- Plant response rating, Crabgrass, Large [5, 19]: 0
- Plant response rating, Crabgrass, Large [5, 20]: 50
- Plant response rating, Pigweed [6, 17]: 90
- Pigweed plant response rating [6, 18]: 100
- Plant response rating, Pigweed [6, 19]: 0
- Plant response rating, Pigweed [6, 20]: 10
- Plant response rating, Velvetleaf [7, 17]: 100
- Velvetleaf plant response rating [7, 18]: 100
- Plant response rating, Velvetleaf [7, 19]: 0
- Plant response rating, Velvetleaf [7, 20]: 50
- Plant response rating, Morningglory [8, 17]: 60
- Plant response rating, Morningglory [8, 19]: 0
- Plant response rating, Morningglory [8, 20]: 0
- Plant response rating, Corn [9, 17]: 0
- Corn plant response rating [9, 18]: 20
- Plant response rating, Corn [9, 19]: 0
- Plant response rating, Corn [9, 20]: 0
- Plant response rating, Wheat [10, 17]: 0
- Wheat plant response rating [10, 18]: 0
- Plant response rating, Wheat [10, 19]: 0
- Plant response rating, Wheat [10, 20]: 20
- Plant response rating, Barnyardgrass [11, 17]: 70
- Barnyardgrass plant response rating [11, 18]: 90
- Plant response rating, Barnyardgrass [11, 19]: 0
- Plant response rating, Barnyardgrass [11, 20]: 10
- Plant response rating, Foxtail, Giant [12, 17]: 30
- Foxtail, Giant plant response rating [12, 18]: 70
- Plant response rating, Foxtail, Giant [12, 19]: 0
- Plant response rating, Foxtail, Giant [12, 20]: 30

Reference: US8952024B2, “Herbicidal pyrimidone derivatives” (E I du Pont de Nemours and Company, priority 2009, dated 2015)
